PMC9569954, “The Antidepressant-like Activity, Effects on Recognition Memory Deficits, Bioavailability, and Safety after Chronic Administration of New Dual-Acting Small Compounds Targeting Neuropsychiatric Symptoms in Dementia” (International Journal of Molecular Sciences, 2022)

Columns and labels:
Bdnf gene = Bdnf gene expression in brain structures (RT-qPCR, ex vivo); design: species or system rats; details: rat, 1 mg/kg/day i.p., 21 days; for Bdnf expression upregulation vs control, hippocampus: hippocampus (Hipp); for Bdnf expression upregulation vs control, prefrontal cortex: prefrontal cortex (PFX)
Method: Animals in all treatment groups were sacrificed by rapid decapitation immediately after the behavioral tests, when the brains and blood samples were collected. For quantitative reverse transcription-polymerase chain reaction (RT-qPCR), the brains of rats were rapidly removed, and the hippocampus and prefrontal cortex were dissected on an ice-cold glass plate. The tissues were frozen in dry ice and stored at −80 °C until required.
The total RNA was extracted from tissues using an RNA Isolation kit (Thermo Fisher Scientific, Rockford, IL, USA), and its concentration was normalized to 20 ng/μL. Reverse transcription was performed with a High-Capacity Reverse Transcription Kit (Life Technologies, Grand Island, NY, USA). A qPCR fast 96-well reaction plate was used for the process with TaqMan Gene Expression assay (Life Technologies) for brain-derived neurotrophic factor Bdnf (Rn02531967_s1) on an Applied Biosystems® 7500 Fast Real-Time PCR Instrument (Applied Biosystems, Foster City, CA, USA), according to the manufacturer’s protocol. Glyceraldehyde-3-phosphate dehydrogenase, Gapdh (Rn01775763_g1), was selected as endogenous control, based on the pilot experiment. Relative normalized expression was calculated using the ΔΔCq method.

[1] = system: (+)-MK-801-induced memory deficits; assay: Novel object recognition (NOR) test in (+)-MK-801 treated rats; format: in vivo, male Wistar rats; details: rat; for Total Exploratory Time in T2 Session: vehicle 49.67 ± 4.63; for effect on (+)-MK-801-induced recognition memory deficits (discrimination index): 21 days, (+)-MK-801 0.1 mg/kg i.p.
Method: The rats were injected with the respective compounds for 21 consecutive days at the minimum active doses selected previously, based on acute treatment and assessment in the NOR test. The protocol for the NOR test was adapted from the original work and the test was performed according to the previously described protocol, 24 h after the last injection of the investigated compound. The discrimination index (DI) was calculated according to the formula:(7) DI=(EB−EA)/(EA+EB) where EB is the exploration time of novel object during the T2 session and EA is the exploration time of […].
PQA-AZ4 and PQA-AZ-6 were administered for 60 and 30 min, respectively, before the T1 phase (the familiarization phase). MK-801 was used to attenuate learning and was administered at a dose of 0.1 mg/kg (i.p.) 30 min before the familiarization phase (T1). The total exploration time in T2 was used to determine the influence of the treatment on the exploratory activity of the animals.

[2] = MTT cytotoxicity on normal human dermal fibroblast cells; format: cell-based; details: NHDF cells (normal human dermal fibroblasts), highest tested concentration (75 μM), read-out: cell viability
Source text: Alpha-MEM and the normal human dermal fibroblast cell line (NHDF) were obtained from Lonza (Lonza, Warsaw, Poland). Phosphate-buffered saline (PBS), fetal bovine serum (FBS), L-glutamine, and 100× antibiotic–antimycotic were from Cytogene (Zgierz, Poland). MTT (3-(4,5-dimethylthiazol-2-yl)-2,5-diphenyltetrazolium bromide) was from Sigma-Aldrich (Poznan, Poland) and DMSO was purchased from Archem (Kamieniec Wroclawski, Poland).
The viability of NHDF cells after treatment with PQA-AZ4 and PQA-AZ-6 was assayed using the previously described methodology. Briefly, 4.5 × 10^3 cells/well were seeded into a 96-multiwell plate and viability was evaluated using the MTT assay. Different volumes of each compound dissolved in DMSO (final concentrations 4.68, 9.37, 18.75, 37.5, and 75 μM, respectively), as well as DMSO itself as solvent control, were added to each well, mixed, and incubated for 48 h. Finally, the optical density was measured at 560 nm with a reference wavelength of 670 nm using an Asys UVM 340 Microplate Reader (Cambridge, UK). Results were expressed as the percentage of survival cells concerning the control (not treated cells).

5-HT7R = biological target: 5-HT7R; design: method as in PMID 35248836; details: read-out: Affinity 5-HT7R Ki; cited from earlier work
PDE10A = system: PDE10A; design: method as in PMID 35248836; details: read-out: Inhibition PDE10A IC50; cited from earlier work
[3] = Serum glucose, triglyceride and cholesterol concentrations; format: in vivo, rats; details: rat, 1 mg/kg/day i.p., 21 days
Method: (§1) The blood samples were collected immediately after decapitation and then centrifuged at 600× g […], 4 °C, to separate the plasma. The blood was used to determine metabolic parameters such as glucose, cholesterol, and triglyceride levels, together with liver enzymatic activity.
Standard enzymatic spectrophotometric tests (Biomaxima S.A., Lublin, Poland) were used to determine glucose, cholesterol, and triglyceride levels in the serum. In the presence of an appropriate enzyme, the substrate was converted to a colored compound. Absorbance was measured at a wavelength of 500 nm.

[4] = Liver enzymatic activity in serum (AlaT, AspaT, γGTP, ALP); format: in vivo, rats; details: rat, 1 mg/kg/day i.p.; for activity of AlaT, AspaT, γGTP, ALP in serum: three-week administration
Method: as §1
To determine alanine aminotransferase (AlaT), […] (AspaT), alkaline phosphatase (ALP), or gamma-glutamyl transpeptidase (γGTP) activities in the serum, a standard enzymatic spectrophotometric test (Biomaxima S.A., Lublin, Poland) was used. Absorbance was measured at a wavelength of 340 nm (AlaT, AspaT) or 405 nm (ALP, γGTP).

Body weight measurement = format: in vivo, rats; details: rat, 20-day administration, 1 mg/kg/day i.p.
Method: Body weight was measured every second day, immediately before the administration of drugs.

[5] = Ferric-reducing antioxidant power (FRAP) of serum; format: in vivo, rats; details: rat, 1 mg/kg/day i.p., 21 days
Method: The assay was performed according to Benzie and Strain [46] with some modifications. The FRAP working solution was prepared before the start of the analysis, namely, 0.3 mol acetate buffer (pH 3.6), 0.01 mol TPTZ (2,4,6-tripyridyl-s-triazine; Sigma-Aldrich) in 0.04 mol HCl (POCh, Gliwice, Poland), and 0.02 M FeCl3×6H2O in water (iron (III) chloride hexahydrate; Chempur, Piekary Śląskie, Poland) were mixed in a volumetric ratio of 10:1:1 and protected from light.
Next, 20 µL of the plasma sample tested, brain homogenate, or FeSO4×7H2O solution was mixed with 180 µL of the FRAP working solution. The mixtures obtained were incubated at 37 °C for 30 min and their absorbance was measured at 593 nm. FeSO4×7H2O (100–1000 µM/L) was used for a calibration curve. Deionized water with FRAP solution was used as a blank.

| SMILES | Bdnf expression upregulation vs control, hippocampus (Bdnf gene) | Bdnf expression upregulation vs control, prefrontal cortex (Bdnf gene) | Total Exploratory Time in T2 Session ([1]; 1 mg/kg/day i.p. 21 days + (+)-MK-801 0.1 mg/kg) | effect on (+)-MK-801-induced recognition memory deficits (discrimination index) ([1]; 1 mg/kg/day i.p.) | viability at 48 h, 75 µM [2] | Ki (5-HT7R) | IC50 (PDE10A) | serum glucose concentration vs vehicle [3] | serum triglycerides concentration vs vehicle [3] | total cholesterol concentration vs vehicle [3] | activity of AlaT, AspaT, γGTP, ALP in serum [4] | weight gain vs vehicle (Body weight measurement) | total antioxidant activity of serum (Fe2+ formed, FRAP) vs control [5] | Total Exploratory Time in T2 Session ([1]; 3 mg/kg/day i.p. 21 days + (+)-MK-801 0.1 mg/kg) | effect on (+)-MK-801-induced recognition memory deficits (discrimination index) ([1]; 3 mg/kg/day i.p.) | γGTP activity in serum vs control ([4]; 21 days) |
| --- | --- | --- | --- | --- | --- | --- | --- | --- | --- | --- | --- | --- | --- | --- | --- | --- |
| COc1cccc(N2CCN(CC3CCN(c4ncnc5cc(OC)c(OC)cc45)C3)CC2)c1 (centres unmarked) [PQA-AZ4, 6,7-Dimethoxy-4-(3-((4-(3-methoxyphenyl)piperazin-1-yl)methyl)pyrrolidin-1-yl)quinazoline] | about 2.8 fold | about 10 fold | 28.83 ± 2.50 p < 0.01 vs. veh; p < 0.05 vs. (+)-MK-801 F(2,16) = 7.3773; p < 0.01 | restored recognition memory deficits | 19.9% | 234 nM | 7070 nM | did not significantly change | did not significantly change | slight but statistically significant (p < 0.05) increase | no significant changes | No significant effect | comparable |  |  |  |
| COc1cc2ncnc(N3CCC(CN4CCN(c5ccc(Cl)cc5)CC4)C3)c2cc1OC (centres unmarked) [PQA-AZ6, 4-(3-((4-(4-Chlorophenyl)piperazin-1-yl)methyl)pyrrolidin-1-yl)-6,7-dimethoxyquinazoline] | about 33 fold | ~12 fold |  |  | 84% | 136 nM | 5680 nM | did not significantly change | did not significantly change |  | no significant changes | No significant effect | comparable | 39.57 ± 4.39 F(2,17) = 1.3060; NS s | restored recognition memory deficits | significantly lower |
